The values that follow come from US20200281873A1, “Adamantane or Bicyclic Monoterpenoid Derivatives for Use in the Treatment of Leishmaniasis” (Commissariat a l'Energie Atomique et aux Energies …, priority 2017, published 2020).

Series [1] deals with Leishmania infantum axenic amastigotes. Briefly: Evaluation on Leishmania donovani infantum axenic amastigotes (SYBR Green I). In kind it is cell-based. Conditions: Leishmania infantum; Table II; 3 different experiments, SYBR Green I method; read-out: IC50 axenic. The procedure:
Protocol for Evaluation on Leishmania donovani infantum Axenic Amastigotes
Amastigote forms of the parasite were suspended to yield 10^7 parasitic cells mL^−1. The maximum final compound concentration used was 100 μM. Triplicates were used for each concentration. Cultures were incubated at 37° C. for 72 h in the dark and under a 5% CO2 atmosphere, then the viability of the amastigotes was assessed using the SYBR® Green I (Invitrogen, France) incorporation method. Parasite growth was determined by using SYBR® Green I, a dye with marked fluorescence enhancement upon contact with parasite DNA. Parasites were lysed and quantified by Direct PCR-Cell Genotyping without DNA isolation protocol (Euromedex, France). 10 μL of lysed parasite solution from each well was added to 40 μL of PCR-Cell reagent containing the SYBR® green I in a qPCR plate of 96 wells, and the contents were mixed. Fluorescence was measured with Mastercycler® ep realplex (Eppendorf, France). Measured fluorescence was compared to that from the range obtained with different parasite densities. The antileishmanial activity was expressed as IC50 in μM (concentration of drug inhibiting 50% of the parasite growth, comparatively to the controls treated with the excipient only).

Series [2] concerns L. donovani (MHOM/ET/67/HU3) amastigotes. Kind of series: In vivo antileishmanial evaluation, Leishmania donovani/Balb/c mouse model (liver parasite load). As to conditions: for % reduction of parasite burden in the liver / LDU ± SD (parasites in the liver): Balb/c mice. The procedure:
Compounds VP343, VP370 were evaluated in vivo for their antileishmanial properties by oral and intravenous route on the Leishmania donovani/Balb/c mouse model, comparatively to miltefosine, used as reference drug, according to a previously described protocol (Balaraman et al., 2015). Six- to eight-week-old Balb/c mice (Élevages Janvier, Le Genest Saint Isle, France) were infected intravenously on day 1 with 10^7 L. donovani (MHOM/ET/67/HU3) amastigotes derived from the spleen of hamsters and randomly sorted into four groups of 10 mice and one group of 12 mice as infected controls but not treated. The treatment administered orally or intravenously, started one week post-infection, on day 8, and continued for 5 consecutive days. At day 15, all groups of mice were autopsied and livers and spleens were weighed. Parasite load in the liver was determined by counting the number of amastigotes/500 liver cells in Giemsa-stained impression smears prepared from the liver and applying Stauber's formula. Three researchers counted the slides independently and the results are expressed as the mean values±SD. The parasite burden of treated groups and controls were compared using Student's t-test or the Kruskal-Wallis nonparametric analysis of variance test for comparing two groups. Significance was established for a P value<0.05.

Series [3] in a line: In vivo toxicity evaluation by oral route in mice (serum biochemical parameters). More on the design: species or system Balb/C female mice. The procedure:
Biochemical parameters relative to VP343 and VP370 toxicity in Balb/C female mice (18-20 g) after a single treatment by oral route at 100 mg/kg under a 0.1 mL volume (=5 mL/kg). Serum were collected one week after the treatment. Excipient: Methylcellulose 1%+Tween 0.1%.
Dosages were performed with a Cobas 800 (Roche/Hitachi) apparatus.

Series [4] can be described thus: Incubation of VP343 with mouse hepatic microsomes (LC-MS). In kind it is in vitro ADME. Conditions: t = 45 min. The procedure:
(§1) The metabolites' identification of VP343 was performed after incubation of the compound with hepatic microsomal preparations from mouse, dog and human origin. The assay was performed by mixing VP343 at 5; 4; 2 or 1 μM with CD1 mouse hepatic microsomes (reference MIC255030 Biopredic) at 0.5 mg/mL of protein, or Beagle dog hepatic microsomes (reference MIC257013 Biopredic) at 1 mg/mL of protein, or human hepatic microsomes (reference MIC159882 Biopredic) at 1 mg/mL of protein, together with 1 mM NADPH (reference N1630 Sigma Aldrich), a phase I reaction's cofactor, in a 0.1 M phosphate buffer pH 7.4. Samples were then incubated in a Thermomixer® (Eppendorf) at 37° C. and 300 rotations per minute. After 45 minutes of incubation, the reaction was stopped with acetonitrile (0.5 volume of the experimental incubation volume). The samples' supernatants were then separated from the microsomes by centrifugation at 20,000 g during 10 minutes (Sorvall ST 16, Thermo Fisher Scientific) before analysis by liquid chromatography coupled to mass spectrometry (LC-MS).
(§2) The analysis was performed in two steps: first, on a positive electrospray ionisation source using a Waters Acquity I class UPLC (Ultra Performance Liquid Chromatography) system coupled to a Waters triple quadrupole mass spectrometer (Xevo TQMS) and then on an orbitrap source using a Thermo Fisher UHPLC (Ultra High Performance Liquid Chromatography) system (Ultimate 3000) coupled to a Thermo Fisher orbitrap mass spectrometer (Q Exactive) to confirm the structures of the identified metabolites. VP343 and his metabolites were separated by the UPLC system with a six minutes gradient of acetonitrile containing 0.1% of formic acid in a BEH C18 column (1.7 μm, 2.1×50 mm, Waters) with a mobile phase flow rate of 0.6 mL/min.
The metabolization of VP343 was studied by incubating the compound with mouse, dog, and human hepatic microsomes. The concentration of VP343 in the microsomal preparations was measured at t=0 and at t=45 min by liquid chromatography-tandem mass spectrometry (LC-MS). […]

Series [5] is described as follows: Incubation of VP343 with dog hepatic microsomes (LC-MS). In kind it is in vitro ADME. Conditions: for VP343 residual concentration: t = 45 min. The procedure: as §1, §2
The metabolization of VP343 was studied by incubating the compound with mouse, dog, and human hepatic microsomes. The concentration of VP343 in the microsomal preparations was measured at t=0 and at t=45 min by liquid chromatography-tandem mass spectrometry (LC-MS). About 5% to 50% of VP343 remained after 45 min of incubation with mouse microsomes according to experiments (Table VI and FIG. 3, respectively). About 5% of VP343 remained with dog microsomes. About 40 to 55% remained with human microsomes.

A short description of series [6]: VP343 metabolites' identification by LC-MS in hepatic microsome supernatants. In kind it is in vitro ADME. As to conditions: supernatants of mouse, dog and human hepatic microsomes incubated with VP343 for 45 min. The procedure:
as §1, with “The samples' supernatants were then separated from the microsomes by centrifugation at 20,000 g during 10 minutes (Sorvall ST 16, Thermo Fisher Scientific) before analysis by liquid chromatography coupled to mass spectrometry (LC-MS).” left out
In each analytical system, the identification was performed in two steps. […] This means that, in a define range mass (m/z 250 to 450), each ion present in the sample should be detected. […] By adding collision energy, the products ions of the targeted metabolites were monitored to validate the supposed metabolite's structure obtained after injecting the sample in full scan mode.
To further investigate the number and nature of the metabolites, supernatants from mouse, dog and human hepatic microsomes incubated with VP343 for 45 min were analyzed by LC-MS (cf. protocol).

Setting [7] is: intravenous route, 10 mg/kg/day × 5.
The mark [8] stands for this setting: single oral treatment 100 mg/kg, serum one week after treatment.

The term IC50 denotes the midpoint of a concentration-inhibition curve.

`COc1ccc(Br)cc1CN(C)C12CC3CC(CC(C3)C1)C2` [VP343]: the half-maximal inhibitory concentration (IC50) in series [1] was found to be 9.29 µM. Also, the “Activity in vivo by intravenous route (in words)” value in series [2] (10 mg/kg/day×5 intravenous, Dunn's multiple comparisons test) was “significantly active”. For the same compound, the “% reduction of parasite burden in the liver” value in series [2] (setting [7]) was 42.4%; in series [2] (oral route, 10 mg/kg/day × 5), 60.2%; in series [2] (oral route, 20 mg/kg/day × 5), 70.8%. Also, the “LDU ± SD (parasites in the liver)” value in series [2] (setting [7]) is given as 0.19 ± 0.09 ×10^8; in series [2] (oral route, 10 mg/kg/day × 5, autopsy day 15), 0.49 ± 0.07 ×10^9; in series [2] (oral route, 20 mg/kg/day × 5, autopsy day 15) it was 0.36 ± 0.08 ×10^9. In addition, the “Activity in vivo by oral route (in words)” value in series [2] (VP343 and VP370 at 20 mg/kg/day×5, VP343 also at 10 mg/kg/day×5, Tukey's multiple comparisons test) is given as “significantly active”. Moreover, in series [3] (setting [8]), the “Serum AST ± SD” value is on record as 391 ± 72 U/L. In addition, the “Serum AST ± SD (second AST column)” value in series [3] (setting [8]) was found to be 169 ± 34 U/L. For the same compound, in series [3] (setting [8]), the Serum creatinin is <18 µM. Besides, the “Toxicity after single oral treatment (in words)” value in series [3] (single treatment by oral route at 100 mg/kg) is reported as “did not show toxicity”. Also, the VP343 residual concentration was found to be 0.08 µM in series [4] (initial concentration 1 μM); 0.09 µM in series [4] (initial concentration 2 μM); 0.25 µM in series [4] (initial concentration 4 μM); 0.03 µM in series [5] (initial concentration 1 μM); 0.09 µM in series [5] (initial concentration 2 μM); 0.12 µM in series [5] (initial concentration 4 μM). Moreover, in series [5] (45 min), the “VP343 remaining after incubation” value is listed as “About 5%”. Moreover, the “Number of metabolites detected” value in series [6] is on record as 11.
